Reference: PMC8185074, “Anchor extension: a structure-guided approach to design cyclic peptides targeting enzyme active sites” (Nature Communications, 2021)
Read-outs that look alike come from different tables or passages of the source. Peptide text beside a SMILES is read from it.

How the values were obtained:
Format in all cases: biochemical
HDAC6 = molecular target: T1, HDAC6 (Homo sapiens, UniProt Q9UBN7); experiment: HDAC6 inhibition, full IC50 measurement (Reaction Biology; fluorogenic p53 peptide RHKK(Ac)AMC)
T1 construct: purchased Reaction Biology Corporation (assay run by the CRO)
T1 sequence (Q9UBN7 1-1215): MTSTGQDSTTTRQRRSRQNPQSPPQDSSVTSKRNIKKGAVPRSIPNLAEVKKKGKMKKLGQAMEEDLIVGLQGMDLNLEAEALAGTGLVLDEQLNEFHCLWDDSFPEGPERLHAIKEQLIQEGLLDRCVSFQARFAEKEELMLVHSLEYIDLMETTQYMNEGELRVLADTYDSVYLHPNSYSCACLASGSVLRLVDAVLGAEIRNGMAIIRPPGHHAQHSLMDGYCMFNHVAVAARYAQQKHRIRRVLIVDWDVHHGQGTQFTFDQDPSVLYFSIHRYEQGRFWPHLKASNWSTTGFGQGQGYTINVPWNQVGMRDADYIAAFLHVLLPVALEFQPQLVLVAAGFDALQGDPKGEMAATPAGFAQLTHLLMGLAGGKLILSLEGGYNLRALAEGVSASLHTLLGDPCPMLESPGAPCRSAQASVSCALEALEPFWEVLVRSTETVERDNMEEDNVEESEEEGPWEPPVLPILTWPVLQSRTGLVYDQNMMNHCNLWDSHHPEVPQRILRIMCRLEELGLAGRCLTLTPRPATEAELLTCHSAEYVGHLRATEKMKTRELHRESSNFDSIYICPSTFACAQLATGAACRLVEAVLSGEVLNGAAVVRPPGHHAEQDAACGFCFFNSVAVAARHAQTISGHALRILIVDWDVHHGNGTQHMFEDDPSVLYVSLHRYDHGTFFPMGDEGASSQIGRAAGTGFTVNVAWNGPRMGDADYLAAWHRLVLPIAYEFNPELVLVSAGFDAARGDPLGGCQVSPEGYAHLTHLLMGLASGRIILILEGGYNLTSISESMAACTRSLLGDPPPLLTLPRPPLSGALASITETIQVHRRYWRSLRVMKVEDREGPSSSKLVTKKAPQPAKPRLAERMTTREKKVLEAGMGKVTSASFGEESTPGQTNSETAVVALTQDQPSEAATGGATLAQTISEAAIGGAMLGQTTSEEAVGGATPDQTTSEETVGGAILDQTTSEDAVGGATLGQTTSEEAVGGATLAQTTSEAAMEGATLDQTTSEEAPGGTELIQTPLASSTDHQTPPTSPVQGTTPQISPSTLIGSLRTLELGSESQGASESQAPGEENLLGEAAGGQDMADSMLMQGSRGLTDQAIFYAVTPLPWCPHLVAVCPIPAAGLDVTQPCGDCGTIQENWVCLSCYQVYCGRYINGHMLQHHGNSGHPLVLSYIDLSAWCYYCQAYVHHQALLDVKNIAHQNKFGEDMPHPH
Summary of the method: (§1)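 Inhibitory peptides were acoustically dispensed with enzyme, then substrate added; 1 h at 30 °C. Developer stopped reaction; plateau endpoint fluorescence (360/460 nm) gave IC50.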

HDAC3 = molecular target: T2, HDAC3 (Homo sapiens, UniProt O15379); experiment: HDAC3 inhibition, full IC50 measurement (Reaction Biology; fluorogenic p53 peptide RHKK(Ac)AMC)
T2 construct: purchased Reaction Biology Corporation (assay run by the CRO)
T2 sequence (O15379 whole entry): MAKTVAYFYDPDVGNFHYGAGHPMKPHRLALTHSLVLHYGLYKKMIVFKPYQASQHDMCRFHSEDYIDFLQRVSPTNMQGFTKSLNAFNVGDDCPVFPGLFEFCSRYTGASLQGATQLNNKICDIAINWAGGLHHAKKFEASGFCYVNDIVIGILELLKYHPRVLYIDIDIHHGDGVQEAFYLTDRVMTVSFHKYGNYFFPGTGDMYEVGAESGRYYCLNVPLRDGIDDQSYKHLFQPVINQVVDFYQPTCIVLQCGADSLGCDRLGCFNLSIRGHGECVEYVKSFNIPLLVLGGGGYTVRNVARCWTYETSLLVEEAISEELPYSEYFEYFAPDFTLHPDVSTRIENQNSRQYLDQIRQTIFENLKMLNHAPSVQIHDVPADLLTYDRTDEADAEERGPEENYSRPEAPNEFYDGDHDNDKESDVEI
T2 sequence (Q9Y618 395-489 partner limits assumed): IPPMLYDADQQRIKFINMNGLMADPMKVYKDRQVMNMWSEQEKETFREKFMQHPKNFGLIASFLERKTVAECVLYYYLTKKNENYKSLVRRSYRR
Summary of the method: as §1

HDAC2 = molecular target: T3, HDAC2 (Homo sapiens, UniProt Q92769); experiment: Initial HDAC2 IC50 estimate (BPS Biosciences HDAC fluorogenic assay kit)
T3 construct: purchased Reaction Biology Corporation (assay run by the CRO)
T3 sequence (Q92769 whole entry): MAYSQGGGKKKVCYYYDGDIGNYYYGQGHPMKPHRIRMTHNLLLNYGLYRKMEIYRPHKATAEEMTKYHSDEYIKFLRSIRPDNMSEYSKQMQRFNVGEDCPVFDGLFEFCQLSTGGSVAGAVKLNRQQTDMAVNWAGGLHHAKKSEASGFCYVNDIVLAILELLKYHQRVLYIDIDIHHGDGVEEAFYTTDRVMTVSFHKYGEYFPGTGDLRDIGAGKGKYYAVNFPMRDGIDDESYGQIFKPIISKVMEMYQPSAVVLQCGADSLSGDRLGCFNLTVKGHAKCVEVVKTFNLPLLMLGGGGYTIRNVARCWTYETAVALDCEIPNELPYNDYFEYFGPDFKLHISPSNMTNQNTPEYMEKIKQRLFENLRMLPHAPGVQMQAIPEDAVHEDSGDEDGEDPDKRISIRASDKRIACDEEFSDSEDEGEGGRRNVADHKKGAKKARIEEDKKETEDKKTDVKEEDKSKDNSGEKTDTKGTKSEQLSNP
Summary of the method: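 Inhibition measured by kit-based fluorogenic HDAC activity assays, with each point in duplicate or triplicate. Values come from a full 1 µM–100 pM series (1:10 steps) or are range estimates from just 20 nM and 200 nM.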

[1] = Supplementary Dataset 2, read-out: HDAC2 activity (initial activity)

## NCCCC[C@H]1NC(=O)[C@H](CCC(N)=O)NC(=O)[C@H](CCC(=O)O)NC(=O)[C@@H]2CCCN2C(=O)[C@H](CC(N)=O)NC(=O)[C@H](CCCCCS)NC(=O)CNC(=O)[C@H](Cc2c[nH]c3ccccc23)NC1=O [des1.1.1, SHA-Asn-Pro-Glu-Gln-dLys-Trp-Gly] (HELM PEPTIDE1{E.Q.[dK].W.G.[O=C([C@H](CCCCCS)N[*:1])[*:2]].N.P}$PEPTIDE1,PEPTIDE1,1:R1-8:R2$$$V2.0)
HDAC6; Conc. 1.00E-05 M, t1
  HDAC6 activity raw data (signal): 2105
HDAC6; Conc. 1.11E-06 M, t1
  HDAC6 activity raw data (signal): 66521
HDAC6; Conc. 1.11E-06 M, t2
  HDAC6 activity raw data (signal): 22362
HDAC6; Conc. 1.23E-07 M, t1
  HDAC6 activity raw data (signal): 195275
HDAC6; Conc. 1.23E-07 M, t2
  HDAC6 activity raw data (signal): 111620
HDAC6; Conc. 1.37E-08 M, t1
  HDAC6 activity raw data (signal): 384422
HDAC6; Conc. 1.37E-08 M, t2
  HDAC6 activity raw data (signal): 355429
HDAC6; Conc. 1.52E-09 M, t1
  HDAC6 activity raw data (signal): 513045
HDAC6; Conc. 1.52E-09 M, t2
  HDAC6 activity raw data (signal): 553965
HDAC6; Conc. 3.33E-06 M, t1
  HDAC6 activity raw data (signal): 30608
HDAC6; Conc. 3.70E-07 M, t1
  HDAC6 activity raw data (signal): 121302
HDAC6; Conc. 3.70E-07 M, t2
  HDAC6 activity raw data (signal): 45275
HDAC6; Conc. 4.12E-08 M, t1
  HDAC6 activity raw data (signal): 327835
HDAC6; Conc. 4.12E-08 M, t2
  HDAC6 activity raw data (signal): 217932
HDAC6; Conc. 4.57E-09 M, t1
  HDAC6 activity raw data (signal): 470518
HDAC6; Conc. 4.57E-09 M, t2
  HDAC6 activity raw data (signal): 472349
HDAC6; Conc. 5.08E-10 M, t1
  HDAC6 activity raw data (signal): 541421
HDAC6; Conc. 5.08E-10 M, t2
  HDAC6 activity raw data (signal): 570888
HDAC3; Conc. 1.00E-05 M, t1
  HDAC3 activity raw data (signal): 45806
HDAC3; Conc. 1.00E-05 M, t2
  HDAC3 activity raw data (signal): 14609
HDAC3; Conc. 1.11E-06 M, t1
  HDAC3 activity raw data (signal): 200334
HDAC3; Conc. 1.11E-06 M, t2
  HDAC3 activity raw data (signal): 152988
HDAC3; Conc. 1.23E-07 M, t1
  HDAC3 activity raw data (signal): 623414
HDAC3; Conc. 1.23E-07 M, t2
  HDAC3 activity raw data (signal): 515219
HDAC3; Conc. 1.37E-08 M, t1
  HDAC3 activity raw data (signal): 834270
HDAC3; Conc. 1.37E-08 M, t2
  HDAC3 activity raw data (signal): 1063632
HDAC3; Conc. 1.52E-09 M, t1
  HDAC3 activity raw data (signal): 943875
HDAC3; Conc. 1.52E-09 M, t2
  HDAC3 activity raw data (signal): 1416606
HDAC3; Conc. 3.33E-06 M, t1
  HDAC3 activity raw data (signal): 128090
HDAC3; Conc. 3.33E-06 M, t2
  HDAC3 activity raw data (signal): 52786
HDAC3; Conc. 3.70E-07 M, t1
  HDAC3 activity raw data (signal): 393148
HDAC3; Conc. 3.70E-07 M, t2
  HDAC3 activity raw data (signal): 276336
HDAC3; Conc. 4.12E-08 M, t1
  HDAC3 activity raw data (signal): 758574
HDAC3; Conc. 4.12E-08 M, t2
  HDAC3 activity raw data (signal): 884895
HDAC3; Conc. 4.57E-09 M, t1
  HDAC3 activity raw data (signal): 936051
HDAC3; Conc. 4.57E-09 M, t2
  HDAC3 activity raw data (signal): 1217433
HDAC3; Conc. 5.08E-10 M, t1
  HDAC3 activity raw data (signal): 935427
HDAC3; Conc. 5.08E-10 M, t2
  HDAC3 activity raw data (signal): 1315263
HDAC2; Supp. Table 4, rough estimates, for promising hits full measurements, read-out: HDAC2 activity (initial values for HDAC2 IC50)
  IC50: 192 nM
HDAC2; [1]
  IC50: 271 nM

## N=C(N)NCCC[C@H]1NC(=O)[C@@H]2CCCN2C(=O)[C@H](CO)NC(=O)[C@@H](Cc2c[nH]cn2)NC(=O)[C@H](CCCCCS)NC(=O)[C@H](CCCCN)NC(=O)[C@H](Cc2ccc(O)cc2)NC(=O)[C@H]2CCCN2C(=O)[C@@H](CCC(N)=O)NC1=O [des3.1.0, SHA-dHis-Ser-Pro-dArg-dGln-dPro-Tyr-Lys] (HELM PEPTIDE1{K.[O=C([C@H](CCCCCS)N[*:1])[*:2]].[dH].S.P.[dR].[dQ].[dP].Y}$PEPTIDE1,PEPTIDE1,1:R1-9:R2$$$V2.0)
HDAC6; Conc. 1.00E-05 M, t1
  HDAC6 activity raw data (signal): 11537
HDAC6; Conc. 1.00E-05 M, t2
  HDAC6 activity raw data (signal): 13038
HDAC6; Conc. 1.11E-06 M, t1
  HDAC6 activity raw data (signal): 76742
HDAC6; Conc. 1.11E-06 M, t2
  HDAC6 activity raw data (signal): 90822
HDAC6; Conc. 1.23E-07 M, t1
  HDAC6 activity raw data (signal): 159657
HDAC6; Conc. 1.23E-07 M, t2
  HDAC6 activity raw data (signal): 168002
HDAC6; Conc. 1.37E-08 M, t1
  HDAC6 activity raw data (signal): 160112
HDAC6; Conc. 1.37E-08 M, t2
  HDAC6 activity raw data (signal): 166776
HDAC6; Conc. 1.52E-09 M, t1
  HDAC6 activity raw data (signal): 119928
HDAC6; Conc. 1.52E-09 M, t2
  HDAC6 activity raw data (signal): 158551
HDAC6; Conc. 3.33E-06 M, t1
  HDAC6 activity raw data (signal): 37434
HDAC6; Conc. 3.33E-06 M, t2
  HDAC6 activity raw data (signal): 38190
HDAC6; Conc. 3.70E-07 M, t1
  HDAC6 activity raw data (signal): 143033
HDAC6; Conc. 3.70E-07 M, t2
  HDAC6 activity raw data (signal): 130317
HDAC6; Conc. 4.12E-08 M, t1
  HDAC6 activity raw data (signal): 144961
HDAC6; Conc. 4.12E-08 M, t2
  HDAC6 activity raw data (signal): 163766
HDAC6; Conc. 4.57E-09 M, t1
  HDAC6 activity raw data (signal): 147758
HDAC6; Conc. 4.57E-09 M, t2
  HDAC6 activity raw data (signal): 164399
HDAC6; Conc. 5.08E-10 M, t1
  HDAC6 activity raw data (signal): 111941
HDAC6; Conc. 5.08E-10 M, t2
  HDAC6 activity raw data (signal): 129043
HDAC3; Conc. 1.00E-05 M, t1
  HDAC3 activity raw data (signal): 46436
HDAC3; Conc. 1.00E-05 M, t2
  HDAC3 activity raw data (signal): 68834
HDAC3; Conc. 1.11E-06 M, t1
  HDAC3 activity raw data (signal): 407446
HDAC3; Conc. 1.11E-06 M, t2
  HDAC3 activity raw data (signal): 414242
HDAC3; Conc. 1.23E-07 M, t1
  HDAC3 activity raw data (signal): 842197
HDAC3; Conc. 1.23E-07 M, t2
  HDAC3 activity raw data (signal): 849517
HDAC3; Conc. 1.37E-08 M, t1
  HDAC3 activity raw data (signal): 932057
HDAC3; Conc. 1.37E-08 M, t2
  HDAC3 activity raw data (signal): 998355
HDAC3; Conc. 1.52E-09 M, t1
  HDAC3 activity raw data (signal): 936917
HDAC3; Conc. 1.52E-09 M, t2
  HDAC3 activity raw data (signal): 1040178
HDAC3; Conc. 3.33E-06 M, t1
  HDAC3 activity raw data (signal): 127237
HDAC3; Conc. 3.33E-06 M, t2
  HDAC3 activity raw data (signal): 217535
HDAC3; Conc. 3.70E-07 M, t1
  HDAC3 activity raw data (signal): 580195
HDAC3; Conc. 3.70E-07 M, t2
  HDAC3 activity raw data (signal): 672322
HDAC3; Conc. 4.12E-08 M, t1
  HDAC3 activity raw data (signal): 931839
HDAC3; Conc. 4.12E-08 M, t2
  HDAC3 activity raw data (signal): 959771
HDAC3; Conc. 4.57E-09 M, t1
  HDAC3 activity raw data (signal): 999086
HDAC3; Conc. 4.57E-09 M, t2
  HDAC3 activity raw data (signal): 1037845
HDAC3; Conc. 5.08E-10 M, t1
  HDAC3 activity raw data (signal): 932822
HDAC3; Conc. 5.08E-10 M, t2
  HDAC3 activity raw data (signal): 1013267
HDAC2; [1]
  IC50: 1400 nM
